Experimental data published in article PMC12205066, “Lysosomal EGFR acts as a Rheb-GEF independent of its kinase activity to activate mTORC1” (Cell Research, 2025).

Target: T1, Rheb (Homo sapiens, UniProt Q15382)
T1 construct: GST-tagged Rheb amino acids 1–169
Test: RP-HPLC of nucleotide released from purified denatured GST-Rheb
Format: binding

T1 sequence (Q15382 1-169): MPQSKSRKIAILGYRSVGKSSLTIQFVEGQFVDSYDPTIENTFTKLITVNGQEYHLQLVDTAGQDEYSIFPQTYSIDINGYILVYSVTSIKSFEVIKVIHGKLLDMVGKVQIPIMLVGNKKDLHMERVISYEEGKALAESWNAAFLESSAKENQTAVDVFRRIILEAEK

## Nc1nc2c(ncn2[C@@H]2O[C@H](CO[P@](=O)(O)OP(=O)(O)O)[C@@H](O)[C@H]2O)c(=O)[nH]1 [GDP]
  RP-HPLC of nucleotide released from purified denatured GST-Rheb: glutathione-S-transferase (GST)-tagged Rheb, which had a substantial GDP-bound fraction
